Assay results taken from publication PMC11456916, “A screen for cell envelope stress uncovers an inhibitor of prolipoprotein diacylglyceryl transferase, Lgt, in Escherichiacoli” (iScience, 2024).

System: 356 CRISPRi constructs in E. coli ΔtolC-pore
Assay: CRISPRi collection fitness screen with sub-inhibitory compound
Format: cell-based
Details: for Growth represented as mean colony biomass: 1μg/ml MAC0452936, 6ng/ml LolCDE-in-1, 250 ng/ml Vancomycin, 7 ng/ml CHIR090, n=4; for Growth, mean colony biomass (n=4): + 7 ng/ml CHIR090
Excerpt: To that end, we screened the E. coli CRISPRi collection in the ΔtolC-pore genetic background with a sub-inhibitory concentration of MAC-0452936 and measured the fitness of all 356 CRISPRi mutants (Figure 4C and Data S4). […] To that end, we introduced either an arabinose inducible copy of lgt supplied on the pCHAP9231 plasmid[48] or the pBAD19s plasmid as a control into E. coli ΔtolC-pore and tested the potency of MAC-0452936 (Figure 4E). […] To test this hypothesis, we constructed E. coli ΔlgtΔtolC-pore with pCHAP9231[48] so that lgt expression was driven solely by arabinose from the plasmid.
For screens of the CRISPRi collection with MAC-0452936, the mobile CRISPRi collection was first conjugated into E. coli ΔtolC-pore as previously described.[30] The CRISPRi collection was then arrayed on solid agar at 1536 density using the Singer-ROTOR, such that each CRISPRi strain is arrayed in technical quadruplicate. […] The screens were conducted without CRISPRi induction, using just the 5–10% basal knockdown from the pFD152 CRISPRi plasmid. Following overnight growth, plates were imaged using high-resolution scanners (Epson Perfection v750), and colony biomass for each mutant was determined.

[1] = sub-inhibitory (¼ MIC) concentration, LB agar, basal knockdown

## C[C@@H](O)[C@H](NC(=O)c1ccc(C#Cc2ccc(CN3CCOCC3)cc2)cc1)C(=O)NO [CHIR090]
gRNA accA
  Growth represented as mean colony biomass: 0.9728
gRNA aceF
  Growth, mean colony biomass (n=4): 1.1
gRNA alaS
  Growth, mean colony biomass (n=4): 1.087
gRNA argS
  Growth, mean colony biomass (n=4): 1.119
gRNA asnS
  Growth, mean colony biomass (n=4): 1.015
gRNA bamA
  Growth, mean colony biomass (n=4): 1.043
gRNA bamD
  Growth, mean colony biomass (n=4): 1.088
gRNA bioA
  Growth, mean colony biomass (n=4): 1.01
gRNA can
  Growth, mean colony biomass (n=4): 1.059
gRNA cca
  Growth represented as mean colony biomass: 0.9249
gRNA coaA
  Growth represented as mean colony biomass: 0.8479
gRNA csrA
  Growth, mean colony biomass (n=4): 1.056
gRNA cydA
  Growth represented as mean colony biomass: 1.062
gRNA cydX
  Growth represented as mean colony biomass: 1.061
gRNA dapD
  Growth represented as mean colony biomass: 0.9522
gRNA dapE
  Growth represented as mean colony biomass: 1.007
gRNA der
  Growth represented as mean colony biomass: 0.9768
gRNA dfp
  Growth represented as mean colony biomass: 0.8989
gRNA dnaC
  Growth, mean colony biomass (n=4): 1.065
gRNA dnaE
  Growth represented as mean colony biomass: 1.058
gRNA dnaN
  Growth represented as mean colony biomass: 1.037
gRNA dnaX
  Growth represented as mean colony biomass: 0.9219
gRNA dut
  Growth, mean colony biomass (n=4): 0.9955
gRNA eno
  Growth represented as mean colony biomass: 0.9728
gRNA era
  Growth represented as mean colony biomass: 1.02
gRNA fabA
  Growth represented as mean colony biomass: 0.9775
gRNA fabG
  Growth represented as mean colony biomass: 1.01
gRNA fabI
  Growth represented as mean colony biomass: 0.9675
gRNA fdx
  Growth represented as mean colony biomass: 0.979
gRNA fldA
  Growth represented as mean colony biomass: 1.057
gRNA folA
  Growth, mean colony biomass (n=4): 0.9636
gRNA folB
  Growth represented as mean colony biomass: 1.017
gRNA folC
  Growth, mean colony biomass (n=4): 1.012
gRNA folE
  Growth represented as mean colony biomass: 0.9169
gRNA folP
  Growth represented as mean colony biomass: 0.9924
gRNA frr
  Growth represented as mean colony biomass: 0.9411
gRNA ftsA
  Growth, mean colony biomass (n=4): 0.9154
gRNA gapA
  Growth represented as mean colony biomass: 0.9821
gRNA glmS
  Growth, mean colony biomass (n=4): 1.055
gRNA glmU
  Growth represented as mean colony biomass: 1.014
gRNA gltX
  Growth represented as mean colony biomass: 0.9512
gRNA glyA
  Growth, mean colony biomass (n=4): 1.052
gRNA groS
  Growth represented as mean colony biomass: 0.9583
gRNA grpE
  Growth represented as mean colony biomass: 1.032
gRNA guaA
  Growth represented as mean colony biomass: 0.9865
gRNA hemD
  Growth, mean colony biomass (n=4): 1.036
gRNA hemG
  Growth represented as mean colony biomass: 0.9689
gRNA hemH
  Growth represented as mean colony biomass: 0.992
gRNA hemL
  Growth represented as mean colony biomass: 0.9608
gRNA higA
  Growth represented as mean colony biomass: 1.023
gRNA hisS
  Growth represented as mean colony biomass: 0.9896
gRNA holD
  Growth represented as mean colony biomass: 0.9599
gRNA hscA
  Growth represented as mean colony biomass: 0.9776
gRNA infA
  Growth, mean colony biomass (n=4): 1.073
gRNA infC
  Growth represented as mean colony biomass: 1.06
gRNA iscU
  Growth represented as mean colony biomass: 0.9911
gRNA ispB
  Growth represented as mean colony biomass: 0.9696
gRNA ispF
  Growth represented as mean colony biomass: 0.9551
gRNA leuS
  Growth, mean colony biomass (n=4): 1.366
gRNA lexA
  Growth, mean colony biomass (n=4): 1.376
gRNA lolC
  Growth represented as mean colony biomass: 0.8957
gRNA lptA
  Growth, mean colony biomass (n=4): 1.212
gRNA lptB
  Growth, mean colony biomass (n=4): 1.0261
gRNA lptC
  Growth represented as mean colony biomass: 1.089
gRNA lptE
  Growth represented as mean colony biomass: 1.06
gRNA lptF
  Growth represented as mean colony biomass: 1.019
gRNA lptG
  Growth represented as mean colony biomass: 1.007
gRNA lpxC
  Growth represented as mean colony biomass: 0.3105
gRNA lpxD
  Growth represented as mean colony biomass: 1.005
gRNA mnmA
  Growth, mean colony biomass (n=4): 1.028
gRNA mrdB
  Growth, mean colony biomass (n=4): 0.9292
gRNA mreB
  Growth represented as mean colony biomass: 0.9175
gRNA mreC
  Growth represented as mean colony biomass: 0.8842
gRNA msbA
  Growth, mean colony biomass (n=4): 1.129
gRNA mukF
  Growth, mean colony biomass (n=4): 0.98
gRNA murB
  Growth represented as mean colony biomass: 1.054
gRNA murC
  Growth represented as mean colony biomass: 0.9542
gRNA murI
  Growth, mean colony biomass (n=4): 1.202
gRNA nadK
  Growth, mean colony biomass (n=4): 1.005
gRNA nusB
  Growth represented as mean colony biomass: 1.054
gRNA plsB
  Growth represented as mean colony biomass: 0.9093
gRNA prmC
  Growth, mean colony biomass (n=4): 0.9966
gRNA proS
  Growth represented as mean colony biomass: 0.9867
gRNA psd
  Growth, mean colony biomass (n=4): 1.319
gRNA pssA
  Growth, mean colony biomass (n=4): 0.939
gRNA ptsI
  Growth, mean colony biomass (n=4): 1.093
gRNA racR
  Growth represented as mean colony biomass: 0.9688
gRNA rho
  Growth, mean colony biomass (n=4): 0.9866
gRNA ribA
  Growth represented as mean colony biomass: 0.9235
gRNA ribC
  Growth represented as mean colony biomass: 0.9738
gRNA ribD
  Growth, mean colony biomass (n=4): 1.097
gRNA ribF
  Growth represented as mean colony biomass: 0.9595
gRNA rimM
  Growth represented as mean colony biomass: 0.9147
gRNA rluD
  Growth represented as mean colony biomass: 1.0007
gRNA rne
  Growth, mean colony biomass (n=4): 1.043
gRNA rpe
  Growth represented as mean colony biomass: 1.042
gRNA rplA
  Growth, mean colony biomass (n=4): 0.9782
gRNA rplD
  Growth represented as mean colony biomass: 0.927
gRNA rplE
  Growth represented as mean colony biomass: 1.02
gRNA rplJ
  Growth represented as mean colony biomass: 0.8734
gRNA rplO
  Growth represented as mean colony biomass: 0.8878
gRNA rplP
  Growth, mean colony biomass (n=4): 1.09
gRNA rplQ
  Growth represented as mean colony biomass: 1.099
gRNA rplS
  Growth represented as mean colony biomass: 0.9537
gRNA rplV
  Growth, mean colony biomass (n=4): 1.004
gRNA rplX
  Growth, mean colony biomass (n=4): 1.052
gRNA rplY
  Growth represented as mean colony biomass: 1.0779
gRNA rpmC
  Growth, mean colony biomass (n=4): 0.9906
gRNA rpmH
  Growth represented as mean colony biomass: 1.001
gRNA rpmI
  Growth represented as mean colony biomass: 0.9513
gRNA rpoC
  Growth, mean colony biomass (n=4): 1.121
gRNA rpoE
  Growth, mean colony biomass (n=4): 1.013
gRNA rpoH
  Growth represented as mean colony biomass: 1.038
gRNA rpsC
  Growth, mean colony biomass (n=4): 1.084
gRNA rpsD
  Growth, mean colony biomass (n=4): 1.134
gRNA rpsE
  Growth represented as mean colony biomass: 0.9264
gRNA rpsF
  Growth represented as mean colony biomass: 1.096
gRNA rpsG
  Growth, mean colony biomass (n=4): 0.9816
gRNA rpsH
  Growth represented as mean colony biomass: 0.9044
gRNA rpsK
  Growth, mean colony biomass (n=4): 1.022
gRNA rpsL
  Growth, mean colony biomass (n=4): 1.049
gRNA rpsM
  Growth, mean colony biomass (n=4): 0.9866
gRNA rpsR
  Growth, mean colony biomass (n=4): 1.0423
gRNA rpsT
  Growth, mean colony biomass (n=4): 0.8858
gRNA rsgA
  Growth represented as mean colony biomass: 0.9517
gRNA safA
  Growth represented as mean colony biomass: 1.0001
gRNA secA
  Growth, mean colony biomass (n=4): 1.136
gRNA secY
  Growth represented as mean colony biomass: 1.007
gRNA serS
  Growth represented as mean colony biomass: 1.071
gRNA ssb
  Growth represented as mean colony biomass: 1.053
gRNA sucA
  Growth represented as mean colony biomass: 0.9406
gRNA suhB
  Growth, mean colony biomass (n=4): 1.008
gRNA tilS
  Growth represented as mean colony biomass: 1.04
gRNA tonB
  Growth represented as mean colony biomass: 0.9801
gRNA trmD
  Growth represented as mean colony biomass: 0.9934
gRNA tsaB
  Growth represented as mean colony biomass: 1.008
gRNA tsaD
  Growth represented as mean colony biomass: 0.9494
gRNA tsaE
  Growth, mean colony biomass (n=4): 1.05
gRNA tsf
  Growth represented as mean colony biomass: 1.069
gRNA tusE
  Growth represented as mean colony biomass: 1.0146
gRNA tyrS
  Growth represented as mean colony biomass: 0.993
gRNA ubiB
  Growth represented as mean colony biomass: 0.9982
gRNA ubiD
  Growth represented as mean colony biomass: 0.963
gRNA waaA
  Growth, mean colony biomass (n=4): 1.006
gRNA ydaS
  Growth represented as mean colony biomass: 0.976
gRNA ydcD
  Growth represented as mean colony biomass: 0.9913
gRNA ydhL
  Growth represented as mean colony biomass: 0.9285
gRNA yedN
  Growth, mean colony biomass (n=4): 0.9909
gRNA yejM
  Growth represented as mean colony biomass: 0.9171
gRNA yffS
  Growth represented as mean colony biomass: 1.036
gRNA ygeF
  Growth represented as mean colony biomass: 1.069
gRNA ygeN
  Growth, mean colony biomass (n=4): 0.9546
gRNA yidC
  Growth represented as mean colony biomass: 0.9824
gRNA ymfE
  Growth represented as mean colony biomass: 0.9789
gRNA ymiB
  Growth represented as mean colony biomass: 1.048
gRNA yqeL
  Growth, mean colony biomass (n=4): 1.42
gRNA yqgF
  Growth represented as mean colony biomass: 1.058
gRNA zipA
  Growth, mean colony biomass (n=4): 1.877
[1]
  growth defect of CRISPRi strains for the compound's molecular target (LolCDE complex and LpxC, respectively): strongest growth defect
  growth defect of the lgt CRISPRi mutant in the presence of compound: did not demonstrate a growth defect
